Assay results taken from patent publication US10745416B2, “Macrocyclic compounds for treating disease” (Turning Point Therapeutics, Inc., priority 2017, dated 2020).

Tests used:
FYN = biological target: T1, FYN (Homo sapiens, UniProt P06241); assay: Biochemical kinase assay (Reaction Biology, 33P ATP); conditions: 10 μM ATP
T1 construct: purchased Reaction Biology Corporation (assay run at the CRO)
Protocol: (§1) The biochemical kinase assay was performed at Reaction Biology Corporation (www.reactionbiology.com, Malvern, Pa.) following the procedures described in the reference (Anastassiadis T, et al Nat Biotechnol. 2011, 29, 1039). Specific kinase/substrate pairs along with required cofactors were prepared in reaction buffer; 20 mM Hepes pH 7.5, 10 mM MgCl2, 1 mM EGTA, 0.02% Brij35, 0.02 mg/ml BSA, 0.1 mM Na3VO4, 2 mM DTIT, 1% DMSO. Compounds were delivered into the reaction, followed ˜20 minutes later by addition of a mixture of ATP (Sigma, St. Louis Mo.) and ^33P ATP (Perkin Elmer, Waltham Mass.) to a final concentration of 10 μM. Reactions were carried out at room temperature for 120 min, followed by spotting of the reactions onto P81 ion exchange filter paper (Whatman Inc., Piscataway, N.J.). Unbound phosphate was removed by extensive washing of filters in 0.75% phosphoric acid. […] IC50 values and curve fits were obtained using Prism (GraphPad Software).

HCK = biological target: T2, HCK (Homo sapiens, UniProt P08631); assay: as above; conditions: 10 μM ATP
T2 construct: purchased Reaction Biology Corporation (assay run at the CRO)
T2 sequence (P08631 whole entry): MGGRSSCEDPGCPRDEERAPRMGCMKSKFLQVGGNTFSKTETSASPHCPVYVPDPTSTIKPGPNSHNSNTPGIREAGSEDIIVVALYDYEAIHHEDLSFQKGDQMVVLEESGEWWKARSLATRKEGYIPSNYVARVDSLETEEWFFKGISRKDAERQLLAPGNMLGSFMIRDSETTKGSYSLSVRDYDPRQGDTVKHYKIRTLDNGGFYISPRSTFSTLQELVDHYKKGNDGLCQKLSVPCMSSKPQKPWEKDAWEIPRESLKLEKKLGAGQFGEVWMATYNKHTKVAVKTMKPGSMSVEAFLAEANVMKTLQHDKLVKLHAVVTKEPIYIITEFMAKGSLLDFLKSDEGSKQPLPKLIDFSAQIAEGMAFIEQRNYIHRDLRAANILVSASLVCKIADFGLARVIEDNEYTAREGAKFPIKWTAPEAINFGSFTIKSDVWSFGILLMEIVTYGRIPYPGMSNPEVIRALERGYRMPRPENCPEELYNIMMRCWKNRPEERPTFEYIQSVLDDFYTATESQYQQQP
Protocol: as §1

LYN = biological target: T3, LYN (Homo sapiens, UniProt P07948); assay: as above; conditions: 10 μM ATP
T3 construct: purchased Reaction Biology Corporation (assay run at the CRO)
Protocol: as §1

RET (A883F) = biological target: T4, RET (A883F) (Homo sapiens, UniProt P07949, A883F); assay: as above; conditions: 10 μM ATP
T4 construct: purchased Reaction Biology Corporation (assay run at the CRO)
T4 sequence (P07949 29-1114 A883F): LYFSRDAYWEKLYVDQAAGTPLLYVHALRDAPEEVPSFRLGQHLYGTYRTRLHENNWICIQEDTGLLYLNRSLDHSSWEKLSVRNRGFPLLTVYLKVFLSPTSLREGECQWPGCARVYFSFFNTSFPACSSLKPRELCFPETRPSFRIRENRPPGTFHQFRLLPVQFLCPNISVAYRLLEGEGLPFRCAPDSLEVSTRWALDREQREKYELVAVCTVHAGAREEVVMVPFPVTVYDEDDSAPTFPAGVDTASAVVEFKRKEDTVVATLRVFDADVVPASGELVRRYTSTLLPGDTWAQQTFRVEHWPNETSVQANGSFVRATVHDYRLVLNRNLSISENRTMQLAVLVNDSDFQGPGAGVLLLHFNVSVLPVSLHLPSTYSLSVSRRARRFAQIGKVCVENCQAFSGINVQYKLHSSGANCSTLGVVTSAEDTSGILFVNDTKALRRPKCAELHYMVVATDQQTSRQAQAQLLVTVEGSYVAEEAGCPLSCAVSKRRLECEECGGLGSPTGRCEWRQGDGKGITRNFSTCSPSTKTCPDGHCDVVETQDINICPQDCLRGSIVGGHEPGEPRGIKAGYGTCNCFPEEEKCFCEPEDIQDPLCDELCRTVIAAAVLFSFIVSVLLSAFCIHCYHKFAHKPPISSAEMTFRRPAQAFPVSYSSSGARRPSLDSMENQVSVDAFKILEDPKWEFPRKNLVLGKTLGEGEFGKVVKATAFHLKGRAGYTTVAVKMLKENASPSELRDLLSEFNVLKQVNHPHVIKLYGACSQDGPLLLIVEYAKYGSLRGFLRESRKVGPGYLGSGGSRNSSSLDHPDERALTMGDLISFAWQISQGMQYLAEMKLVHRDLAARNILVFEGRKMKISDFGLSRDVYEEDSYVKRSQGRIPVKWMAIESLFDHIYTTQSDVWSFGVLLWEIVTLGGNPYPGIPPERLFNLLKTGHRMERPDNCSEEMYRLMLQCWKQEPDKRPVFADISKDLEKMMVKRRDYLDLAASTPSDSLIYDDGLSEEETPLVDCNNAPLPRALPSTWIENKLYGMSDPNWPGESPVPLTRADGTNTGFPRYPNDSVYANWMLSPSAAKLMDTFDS
Protocol: as §1

RET (E762Q) = biological target: T5, RET (E762Q) (Homo sapiens, UniProt P07949, E762Q); assay: as above; conditions: 10 μM ATP
T5 construct: purchased Reaction Biology Corporation (assay run at the CRO)
Protocol: as §1

RET (G691S) = biological target: T6, RET (G691S) (Homo sapiens, UniProt P07949, G691S); assay: as above; conditions: 10 μM ATP
T6 construct: purchased Reaction Biology Corporation (assay run at the CRO)
T6 sequence (P07949 29-1114 G691S): as the sequence (P07949 29-1114 A883F) above, with G663S, F855A counted along it
Protocol: as §1

RET = biological target: T7, RET (Homo sapiens, UniProt P07949); assay: as above; conditions: 10 μM ATP
T7 construct: purchased Reaction Biology Corporation (assay run at the CRO)
Protocol: as §1

RET (L790F) = biological target: T8, RET (L790F) (Homo sapiens, UniProt P07949, L790F); assay: as above; conditions: 10 μM ATP
T8 construct: purchased Reaction Biology Corporation (assay run at the CRO)
Protocol: as §1

RET (R813Q) = biological target: T9, RET (R813Q) (Homo sapiens, UniProt P07949, R813Q); assay: as above; conditions: 10 μM ATP
T9 construct: purchased Reaction Biology Corporation (assay run at the CRO)
Protocol: as §1

RET (S891A) = biological target: T10, RET (S891A) (Homo sapiens, UniProt P07949, S891A); assay: as above; conditions: 10 μM ATP
T10 construct: purchased Reaction Biology Corporation (assay run at the CRO)
Protocol: as §1

RET (S904A) = biological target: T11, RET (S904A) (Homo sapiens, UniProt P07949, S904A); assay: as above; conditions: 10 μM ATP
T11 construct: purchased Reaction Biology Corporation (assay run at the CRO)
Protocol: as §1

RET (S904F) = biological target: T12, RET (S904F) (Homo sapiens, UniProt P07949, S904F); assay: as above; conditions: 10 μM ATP
T12 construct: purchased Reaction Biology Corporation (assay run at the CRO)
T12 sequence (P07949 29-1114 S904F): as the sequence (P07949 29-1114 A883F) above, with F855A, S876F counted along it
Protocol: as §1

RET (V778I) = biological target: T13, RET (V778I) (Homo sapiens, UniProt P07949, V778I); assay: as above; conditions: 10 μM ATP
T13 construct: purchased Reaction Biology Corporation (assay run at the CRO)
Protocol: as §1

RET (V804L) = biological target: T14, RET (V804L) (Homo sapiens, UniProt P07949, V804L); assay: as above; conditions: 10 μM ATP
T14 construct: purchased Reaction Biology Corporation (assay run at the CRO)
Protocol: as §1

RET (V804M) = biological target: T15, RET (V804M) (Homo sapiens, UniProt P07949, V804M); assay: as above; conditions: 10 μM ATP
T15 construct: purchased Reaction Biology Corporation (assay run at the CRO)
Protocol: as §1

RET (Y791F) = biological target: T16, RET (Y791F) (Homo sapiens, UniProt P07949, Y791F); assay: as above; conditions: 10 μM ATP
T16 construct: purchased Reaction Biology Corporation (assay run at the CRO)
T16 sequence (P07949 29-1114 Y791F): as the sequence (P07949 29-1114 A883F) above, with Y763F, F855A counted along it
Protocol: as §1

RET (Y806H) = biological target: T17, RET (Y806H) (Homo sapiens, UniProt P07949, Y806H); assay: as above; conditions: 10 μM ATP
T17 construct: purchased Reaction Biology Corporation (assay run at the CRO)
Protocol: as §1

RET-CCDC6 (PTC1) = biological target: T18, RET-CCDC6 (PTC1) (Homo sapiens, UniProt P07949); assay: as above; conditions: 10 μM ATP
T18 construct: fusion transcripts composed of the 3′ end of RET kinase domain and the 5′ end of separate partner genes; CCDC6 N-terminal part (fusion partner); purchased Reaction Biology Corporation (assay run at the CRO); the other entry of the earlier key: CCDC6 (Q16204, Coiled-coil domain-containing protein 6)
Protocol: as §1

RET-NCOA4 (PTC3) = biological target: T19, RET-NCOA4 (PTC3) (Homo sapiens, UniProt P07949); assay: as above; conditions: 10 μM ATP
T19 construct: fusion transcripts composed of the 3′ end of RET kinase domain and the 5′ end of separate partner genes; NCOA4 N-terminal part (fusion partner); purchased Reaction Biology Corporation (assay run at the CRO)
Protocol: as §1

RET-PRKAR1A (PTC2) = biological target: T20, RET-PRKAR1A (PTC2) (Homo sapiens, UniProt P07949); assay: as above; conditions: 10 μM ATP
T20 construct: fusion transcripts composed of the 3′ end of RET kinase domain and the 5′ end of separate partner genes; PRKAR1A N-terminal part (fusion partner); purchased Reaction Biology Corporation (assay run at the CRO); the other entry of the earlier key: PRKAR1A (P10644, cAMP-dependent protein kinase type I-alpha regulatory subunit)
Protocol: as §1

Src = biological target: T21, Src (Homo sapiens, UniProt P12931); assay: as above; conditions: 10 μM ATP
T21 construct: purchased Reaction Biology Corporation (assay run at the CRO)
Protocol: as §1

YES = biological target: T22, YES (Homo sapiens, UniProt P07947); assay: as above; conditions: 10 μM ATP
T22 construct: purchased Reaction Biology Corporation (assay run at the CRO)
Protocol: as §1

BaF3 EML4-ALK = biological target: T23, BaF3 EML4-ALK (Homo sapiens, UniProt Q9UM73); assay: Cell proliferation assay (CellTiter-Glo, 72 hours); assay type: cell-based; conditions: anti-cell proliferation
T23 construct: The EML4-ALK gene (variant 1) was synthesized at GenScript and cloned into pCDH-CMV-MCS-EF1-Puro plasmid (System Biosciences, Inc); fused on or other part: Q9HC35 (Echinoderm microtubule-associated protein-like 4)
Outline: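 Ba/F3 cells were stably transduced with wild-type EML4-ALK variant 1 and selected for IL-3-independent growth. Cells were seeded for 24 h, then exposed to compounds for 72 h at 37 °C, 5% CO2. Viability was read as ATP luminescence and IC50 values were fitted.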

An IC50 (FYN) of 1.81 nM, an IC50 (HCK) of 1.95 nM and an IC50 (LYN) of 1.97 nM were found for `C[C@H]1CNC(=O)c2cnn3cc4c(nc23)N(Cc2cc(F)ccc2O1)[C@@H]1CCC[C@@H]1O4` [Compound 1, (3aR,11S,20aS)-7-fluoro-11-methyl-2,3,3a,12,13,20a-hexahydro-1H,5H-17-19-(metheno)cyclopenta[5,6][1,4] oxazino[3,4-i]pyrazolo[4,3-f][1,4,8,10]benzoxatriacyclotridecin-14(11H)-one] in this work. The IC50 (RET (A883F)) was 0.52 nM, the IC50 (RET (E762Q)) was 2.07 nM and the IC50 (RET (G691S)) was 3.01 nM. The IC50 (RET) was 0.0994 nM, the IC50 (RET (L790F)) was 0.12 nM and the IC50 (RET (R813Q)) was 0.341 nM. For the same molecule, the IC50 (RET (S891A)) was 0.664 nM, the IC50 (RET (S904A)) was 0.159 nM and the IC50 (RET (S904F)) was 0.0621 nM. The IC50 (RET (V778I)) was under 0.0508 nM, the IC50 (RET (V804L)) was 10 nM and the IC50 (RET (V804M)) was 7.86 nM. For the same molecule, the IC50 (RET (Y791F)) was under 0.0508 nM, the IC50 (RET (Y806H)) was 0.385 nM and the IC50 (RET-CCDC6 (PTC1)) was 0.0893 nM. For the same molecule, the IC50 (RET-NCOA4 (PTC3)) was 0.0635 nM, the IC50 (RET-PRKAR1A (PTC2)) was 0.129 nM and the IC50 (Src) was 0.875 nM. The IC50 (YES) was 1.72 nM and the GI50 (BaF3 EML4-ALK) was 211 nM.

An IC50 (FYN) of 1.94 nM, an IC50 (HCK) of 2.71 nM and an IC50 (LYN) of 2.03 nM were found for `C[C@H]1CNC(=O)c2cnn3cc4c(nc23)N(Cc2cc(F)cnc2O1)[C@@H]1CCC[C@@H]1O4` [Compound 5, (3aR,11S,20aS)-7-fluoro-11-methyl-2,3,3a,12,13,20a-hexahydro-1H,5H-17-19-(metheno)cyclopenta[5,6][1,4] oxazino[3,4-i]pyrazolo[4,3-f]pyrido[3,2-l][1,4,8,10]oxatriazacyclotridecin-14(11H)-one] in this work. It also gave an IC50 (RET (A883F)) of 3.08 nM, an IC50 (RET (E762Q)) of 0.58 nM and an IC50 (RET (G691S)) of 0.941 nM. The IC50 (RET) was 1.01 nM, the IC50 (RET (L790F)) was 1.31 nM and the IC50 (RET (R813Q)) was 2.46 nM. It also gave an IC50 (RET (S891A)) of 0.303 nM, an IC50 (RET (S904A)) of 1.22 nM and an IC50 (RET (S904F)) of 0.364 nM. For the same molecule, the IC50 (RET (V778I)) was 0.233 nM, the IC50 (RET (V804L)) was 2350 nM and the IC50 (RET (V804M)) was 18.8 nM. For the same molecule, the IC50 (RET (Y791F)) was 7.95 nM, the IC50 (RET (Y806H)) was 0.261 nM and the IC50 (RET-CCDC6 (PTC1)) was 1.97 nM. For the same molecule, the IC50 (RET-NCOA4 (PTC3)) was 0.691 nM, the IC50 (RET-PRKAR1A (PTC2)) was 0.29 nM and the IC50 (Src) was 1.46 nM. The IC50 (YES) was 2.64 nM and the GI50 (BaF3 EML4-ALK) was 516 nM.
